Experimental data reported in patent US12428405B2, “Chalcone-based chemotherapeutic compound for triple negative breast cancer” (QATAR UNIVERSITY, priority 2019, dated 2025).

Assays:
Type in all cases: cell-based
[1] = system: BT-474; assay: MTT cell viability
Source text: Breast cancer cell lines including MDA-MB-231, MDA-MB-468, MCF-7, BT-474 and SK-BR-3 were obtained from the American Type Tissue Culture (ATCC) and maintained in complete cell culture media Gibco® RPMI 1640 (Thermo Fisher Scientific, USA) supplemented with 10% fetal bovine serum (PAN-Biotech, Aidenbach, Bavaria, Germany) and 1% penicillin/streptomycin (1×) antibiotics (Thermo Fisher Scientific, USA). Human normal mammary epithelial cells immortalized by E6/E7 of HPV type 16 (HNME-E6/E7) were used to predict potential safety of the compounds (125, 126). They were maintained in Gibco® Keratinocyte-SFM (1×) media. All cells were incubated in 5% CO2 at 37° C. incubator. Cells were maintained by routine sub-culturing in T-75 and T25 filtered tissue culture flasks.
MDA-MB-231, MDA-MB-468, MCF-7, BT-474 and HNME-E6/E7 cells were seeded overnight in 96-well plates at a concentration of 8000-10,000/well depending on their pre-calculated cell density and were incubated overnight. At 24 hours, media was replaced with fresh one. The treatment wells included 6-8 different concentrations of the compounds ranging between 0.25 μM-160 μM. At 48 hours post treatment, 10 μL MTT solution was added to each well followed by 4 hours of incubation. Afterwards, media with MTT was removed from all wells and 50 μl DMSO was added to each well to dissolve the crystals. This was followed by 5 minutes incubation. Absorbance was recorded at a wavelength of 562 nm after 3 minutes of shaking using Infinite 200 PRO Microplate Reader (Tecan, Switzerland). Percentage of viable cells was calculated using the following formula: […]

[2] = system: EMT markers on MCF-7; assay: Western blot of EMT markers; conditions: 5 and 10 μM
Description: (§1) Proteins were quantified with the Pierce BCA Protein Assay Kit (Thermo Scientific, USA) following cell lysis. SDS-PAGE was prepared at a concentration of 10% for all studied proteins. All samples were loaded at 40 μg per 1.5 mm 15 wells comb. Running of stained samples was performed using two steps gel electrophoresis (60 Volts for 20 minutes followed by 120 Volts for 1 hour). Afterwards, gels were transferred into PVDF membrane at 100 Voltage for 1.5-2.0 hours using wet transfer. Following transfer, PVDF membranes were blocked with 5% skimmed milk and washed three times. Primary antibodies (Table 2.2) were prepared, then PVDF membrane were incubated with them overnight with gentle shaking at 4° C. Afterwards, membranes were washed three times and incubated with their respective secondary antibodies for 1-2 hours with gentle shaking at room temperature. Pierce™ ECL Western Blotting Substrate was used to detect proteins by chemiluminescence. Blots were imaged using the ibrightCL1000 imaging system.

[3] = system: Epithelial Mesenchymal Transition (EMT) markers in MDA-MB-231 cells; assay: Western blot of EMT markers
Description: as §1

Q: Which results are given for `COc1cccc(C(=O)/C=C/c2ccc(N(CCCl)CCCl)cc2)c1` [Compound 14, (E)-3-(4-(Bis(2-chloroethyl)amino)phenyl)-1-(3-methoxyphenyl) prop-2-en-1-one]?
A: IC50 ([1]; Homo sapiens, BT-474, 48 hours of treatment, Mean ± SEM (n = 3 × 3)): 9.22 ± 0.78 µM; SI of HNME/BT-474 (selective index) ([1]; ratio of LD50 on HNME-E6/E7 to IC50 on BT-474): 2.24; E-cadherin expression [2]: concentration dependent upregulation; pan-cadherin expression [2]: upregulated by compound 14 in a concentration dependent manner; E-cadherin expression ([3]; 5 and 10 μM): concentration dependent upregulation; pan-cadherin expression ([3]; 5 and 10 μM): upregulated by compound 14 in a concentration dependent manner; Focal adhesion kinase (FAK) expression ([3]; MDA-MB-231): downregulated; expression of β-catenin and its phosphorylated form ([3]; cell line not named in the sentence (FIG. 3.24, FIG. 3.25)): No significant changes; EMT (in words) ([3]; summary statement): reversal of EMT
